Molecules are shown by their SMILES. Bridge positions count the residues as written; N and C are the ends. Square brackets hold non-standard residues; d marks the D form. Peptide text beside a SMILES is read from it. * marks the point of attachment. Bip = N[C@@H](Cc1ccc(-c2ccccc2)cc1)C(=O)O; Phe(3-Me) = Cc1cccc(C[C@H](N)C(=O)O)c1; 4Pal = N[C@@H](Cc1ccncc1)C(=O)O; Cha = N[C@@H](CC1CCCCC1)C(=O)O; Carboxymethyl = O=C(O)C*; Nle = CCCC[C@H](N)C(=O)O; Orn = NCCC[C@H](N)C(=O)O; Aun = NCCCCCCCCCCC(=O)O; Dab = NCC[C@H](N)C(=O)O; Dap = NC[C@H](N)C(=O)O; AEEA = NCCOCCOCC(=O)O

T1 sequence (Q15116 25-288): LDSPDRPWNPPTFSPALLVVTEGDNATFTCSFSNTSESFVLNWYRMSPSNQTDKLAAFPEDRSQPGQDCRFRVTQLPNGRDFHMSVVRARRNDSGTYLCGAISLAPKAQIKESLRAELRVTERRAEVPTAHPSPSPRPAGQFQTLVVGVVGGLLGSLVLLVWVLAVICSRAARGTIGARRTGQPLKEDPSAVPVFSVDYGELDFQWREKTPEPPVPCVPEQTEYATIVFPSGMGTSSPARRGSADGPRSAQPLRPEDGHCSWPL

The test addresses T1, PD-1/PD-L1 interaction (PE-labeled human PD-L1-Ig binding to Jurkat cell line over-expressing human PD-1) (Homo sapiens, UniProt Q15116).
T1 construct: expressed in transfected cells; host or cells: Jurkat
The test is described as follows: Jurkat-PD-1 Cell Binding High-Content Screening Assay (CBA). The following applies: Jurkat cell line over-expressing human PD-1; PE-labeled PD-L1-Ig 20 nM final; read-out: Jurkat hPD1-PDL1 IC50. In kind it is cell-based. Put shortly:
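Jurkat-hPD-1 cells, DMEM/10% FCS; cpd 2 h 37° C; PE-PD-L1-Ig 20 nM final, 1 h; 4% PFA fix + Hoechst 33342, 3× dPBS wash; high-content imaging read-out.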
Regarding `CC(C)C[C@H]1NC(=O)[C@H](CCCN)NC(=O)[C@H](Cc2ccc(O)cc2)NC(=O)[C@H](Cc2ccc(-c3ccccc3)cc2)NC(=O)[C@H](C(C)C)NC(=O)[C@H](Cc2c[nH]c3ccccc23)NC(=O)[C@H](CC(=O)O)NC(=O)[C@H](Cc2ccc(OCC(=O)O)cc2)NC(=O)[C@H](Cc2ccncc2)NC(=O)CSC[C@@H](C(=O)N[C@@H](CCN)C(=O)NCCCCCCCCCCC(=O)O)NC(=O)[C@H](CCCN)NC(=O)[C@H](C(C)C)NC(=O)[C@H](CC2CCCCC2)NC(=O)[C@H](CCN)NC1=O` [Compound 2702] ({CH2CO}-[4Pal]Y(Carboxymethyl)DWV[Bip]Y[Orn][dL][Dab][Cha]V[Orn]C[Dab][Aun]-OH; thioether N-14), the IC50 is 25.7 nM.

As for `CC(C)C[C@H]1NC(=O)[C@H](CCCN)NC(=O)[C@H](Cc2ccc(O)cc2)NC(=O)[C@H](Cc2ccc(-c3ccccc3)cc2)NC(=O)[C@H](C(C)C)NC(=O)[C@H](Cc2c[nH]c3ccccc23)NC(=O)[C@H](CC(=O)O)NC(=O)[C@H](Cc2ccc(O)cc2)NC(=O)[C@H](Cc2ccncc2)NC(=O)CSC[C@@H](C(=O)N[C@@H](CCN)C(=O)NCCOCCOCC(=O)NCCCCCCCCCCC(=O)O)NC(=O)[C@H](CCCN)NC(=O)[C@H](C(C)C)NC(=O)[C@H](CC2CCCCC2)NC(=O)[C@H](CCN)NC1=O` [Compound 2703] ({CH2CO}-[4Pal]YDWV[Bip]Y[Orn][dL][Dab][Cha]V[Orn]C[Dab][AEEA][Aun]-OH; thioether N-14), the IC50 came to 19.3 nM.

For the compound `CC(C)C[C@H]1NC(=O)[C@H](CCCN)NC(=O)[C@H](Cc2ccc(O)cc2)NC(=O)[C@H](Cc2ccc(-c3ccccc3)cc2)NC(=O)[C@H](C(C)C)NC(=O)[C@H](Cc2c[nH]c3ccccc23)NC(=O)[C@H](CC(=O)O)NC(=O)[C@H](Cc2ccc(O)cc2)NC(=O)[C@H](Cc2ccncc2)NC(=O)CSC[C@@H](C(=O)N[C@@H](CCN)C(=O)NCCCCCCCCCCC(=O)O)NC(=O)[C@H](CCCN)NC(=O)[C@H](C(C)C)NC(=O)[C@H](CC2CCCCC2)NC(=O)[C@H](CCN)NC1=O` [Compound 2704] ({CH2CO}-[4Pal]YDWV[Bip]Y[Orn][dL][Dab][Cha]V[Orn]C[Dab][Aun]-OH; thioether N-14), the IC50 is 26.7 nM.

Regarding `Cc1cccc(C[C@@H]2NC(=O)[C@H](CC(=O)O)NC(=O)[C@H](Cc3ccc(OCC(=O)O)cc3)NC(=O)[C@H](Cc3ccncc3)NC(=O)CSC[C@@H](C(=O)N[C@@H](CCN)C(=O)NCCOCCOCC(=O)NCCCCCCCCCCC(=O)O)NC(=O)[C@H](CCCN)NC(=O)[C@H](C(C)C)NC(=O)[C@H](CC3CCCCC3)NC(=O)[C@H](CCN)NC(=O)[C@@H](CC(C)C)NC(=O)[C@H](CCCN)NC(=O)[C@H](Cc3ccc(O)cc3)NC(=O)[C@H](Cc3ccc(-c4ccccc4)cc3)NC(=O)[C@H](C(C)C)NC2=O)c1` [Compound 2705] ({CH2CO}-[4Pal]Y(Carboxymethyl)D[Phe(3-Me)]V[Bip]Y[Orn][dL][Dab][Cha]V[Orn]C[Dab][AEEA][Aun]-OH; thioether N-14), the IC50 was 8.3 nM.

Consider `Cc1cccc(C[C@@H]2NC(=O)[C@H](CC(=O)O)NC(=O)[C@H](Cc3ccc(OCC(=O)O)cc3)NC(=O)[C@H](Cc3ccncc3)NC(=O)CSC[C@@H](C(=O)N[C@@H](CCN)C(=O)NCCCCCCCCCCC(=O)O)NC(=O)[C@H](CCCN)NC(=O)[C@H](C(C)C)NC(=O)[C@H](CC3CCCCC3)NC(=O)[C@H](CCN)NC(=O)[C@@H](CC(C)C)NC(=O)[C@H](CCCN)NC(=O)[C@H](Cc3ccc(O)cc3)NC(=O)[C@H](Cc3ccc(-c4ccccc4)cc3)NC(=O)[C@H](C(C)C)NC2=O)c1` [Compound 2706] ({CH2CO}-[4Pal]Y(Carboxymethyl)D[Phe(3-Me)]V[Bip]Y[Orn][dL][Dab][Cha]V[Orn]C[Dab][Aun]-OH; thioether N-14), for which the IC50 was determined as 18.4 nM.

As for `Cc1cccc(C[C@@H]2NC(=O)[C@H](CC(=O)O)NC(=O)[C@H](Cc3ccc(O)cc3)NC(=O)[C@H](Cc3ccncc3)NC(=O)CSC[C@@H](C(=O)N[C@@H](CCN)C(=O)NCCOCCOCC(=O)NCCCCCCCCCCC(=O)O)NC(=O)[C@H](CCCN)NC(=O)[C@H](C(C)C)NC(=O)[C@H](CC3CCCCC3)NC(=O)[C@H](CCN)NC(=O)[C@@H](CC(C)C)NC(=O)[C@H](CCCN)NC(=O)[C@H](Cc3ccc(O)cc3)NC(=O)[C@H](Cc3ccc(-c4ccccc4)cc3)NC(=O)[C@H](C(C)C)NC2=O)c1` [Compound 2707] ({CH2CO}-[4Pal]YD[Phe(3-Me)]V[Bip]Y[Orn][dL][Dab][Cha]V[Orn]C[Dab][AEEA][Aun]-OH; thioether N-14), the IC50 is 20.8 nM.

As to `Cc1cccc(C[C@@H]2NC(=O)[C@H](CC(=O)O)NC(=O)[C@H](Cc3ccc(O)cc3)NC(=O)[C@H](Cc3ccncc3)NC(=O)CSC[C@@H](C(=O)N[C@@H](CCN)C(=O)NCCCCCCCCCCC(=O)O)NC(=O)[C@H](CCCN)NC(=O)[C@H](C(C)C)NC(=O)[C@H](CC3CCCCC3)NC(=O)[C@H](CCN)NC(=O)[C@@H](CC(C)C)NC(=O)[C@H](CCCN)NC(=O)[C@H](Cc3ccc(O)cc3)NC(=O)[C@H](Cc3ccc(-c4ccccc4)cc3)NC(=O)[C@H](C(C)C)NC2=O)c1` [Compound 2708] ({CH2CO}-[4Pal]YD[Phe(3-Me)]V[Bip]Y[Orn][dL][Dab][Cha]V[Orn]C[Dab][Aun]-OH; thioether N-14), the IC50 stood at 62.8 nM.

Regarding `Cc1cccc(C[C@@H]2NC(=O)[C@H](CC(=O)O)NC(=O)[C@H](Cc3ccncc3)NC(=O)[C@H](Cc3ccc(OCC(=O)O)cc3)NC(=O)CSC[C@@H](C(=O)N[C@@H](CCN)C(=O)NCCOCCOCC(=O)NCCCCCCCCCCC(=O)O)NC(=O)[C@H](CCCN)NC(=O)[C@H](C(C)C)NC(=O)[C@H](CC3CCCCC3)NC(=O)[C@H](CCN)NC(=O)[C@@H](CC(C)C)NC(=O)[C@H](CCCN)NC(=O)[C@H](Cc3ccc(O)cc3)NC(=O)[C@H](Cc3ccc(-c4ccccc4)cc3)NC(=O)[C@H](C(C)C)NC2=O)c1` [Compound 2709] ({CH2CO}-Y(Carboxymethyl)[4Pal]D[Phe(3-Me)]V[Bip]Y[Orn][dL][Dab][Cha]V[Orn]C[Dab][AEEA][Aun]-OH; thioether N-14), the IC50 was 8.4 nM.

For the compound `Cc1cccc(C[C@@H]2NC(=O)[C@H](CC(=O)O)NC(=O)[C@H](Cc3ccncc3)NC(=O)[C@H](Cc3ccc(OCC(=O)O)cc3)NC(=O)CSC[C@@H](C(=O)N[C@@H](CCN)C(=O)NCCCCCCCCCCC(=O)O)NC(=O)[C@H](CCCN)NC(=O)[C@H](C(C)C)NC(=O)[C@H](CC3CCCCC3)NC(=O)[C@H](CCN)NC(=O)[C@@H](CC(C)C)NC(=O)[C@H](CCCN)NC(=O)[C@H](Cc3ccc(O)cc3)NC(=O)[C@H](Cc3ccc(-c4ccccc4)cc3)NC(=O)[C@H](C(C)C)NC2=O)c1` [Compound 2710] ({CH2CO}-Y(Carboxymethyl)[4Pal]D[Phe(3-Me)]V[Bip]Y[Orn][dL][Dab][Cha]V[Orn]C[Dab][Aun]-OH; thioether N-14), the IC50 worked out at 18.6 nM.

Take `Cc1cccc(C[C@@H]2NC(=O)[C@H](CC(=O)O)NC(=O)[C@H](Cc3ccc(OCC(=O)O)cc3)NC(=O)[C@H](CN)NC(=O)CSC[C@@H](C(=O)N[C@@H](CCN)C(=O)NCCCCCCCCCCC(=O)O)NC(=O)[C@H]([C@@H](C)O)NC(=O)[C@H](C(C)C)NC(=O)[C@H](CC3CCCCC3)NC(=O)[C@H](CCN)NC(=O)[C@@H](CC(C)C)NC(=O)[C@H](CCCN)NC(=O)[C@H](Cc3ccc(O)cc3)NC(=O)[C@H](Cc3ccc(-c4ccccc4)cc3)NC(=O)[C@H](Cc3ccc(O)cc3)NC2=O)c1` [Compound 2711] ({CH2CO}-[Dap]Y(Carboxymethyl)D[Phe(3-Me)]Y[Bip]Y[Orn][dL][Dab][Cha]VTC[Dab][Aun]-OH; thioether N-14): the IC50 is 10.4 nM.

In the case of `Cc1cccc(C[C@@H]2NC(=O)[C@H](CC(=O)O)NC(=O)[C@H](Cc3ccc(OCC(=O)O)cc3)NC(=O)[C@H](CN)NC(=O)CSC[C@@H](C(=O)N[C@@H](CCN)C(=O)NCCCCCCCCCCC(=O)O)NC(=O)[C@H](CO)NC(=O)[C@H](C(C)C)NC(=O)[C@H](CC3CCCCC3)NC(=O)[C@H](CCN)NC(=O)[C@@H](CC(C)C)NC(=O)[C@H](CCCN)NC(=O)[C@H](Cc3ccc(O)cc3)NC(=O)[C@H](Cc3ccc(-c4ccccc4)cc3)NC(=O)[C@H](Cc3ccc(O)cc3)NC2=O)c1` [Compound 2712] ({CH2CO}-[Dap]Y(Carboxymethyl)D[Phe(3-Me)]Y[Bip]Y[Orn][dL][Dab][Cha]VSC[Dab][Aun]-OH; thioether N-14), the IC50 was found to be 20.6 nM.

On to `Cc1cccc(C[C@@H]2NC(=O)[C@H](CC(=O)O)NC(=O)[C@H](Cc3ccc(OCC(=O)O)cc3)NC(=O)[C@H](CN)NC(=O)CSC[C@@H](C(=O)N[C@@H](CCN)C(=O)NCCCCCCCCCCC(=O)O)NC(=O)[C@H](CCC(N)=O)NC(=O)[C@H](C(C)C)NC(=O)[C@H](CC3CCCCC3)NC(=O)[C@H](CCN)NC(=O)[C@@H](CC(C)C)NC(=O)[C@H](CCCN)NC(=O)[C@H](Cc3ccc(O)cc3)NC(=O)[C@H](Cc3ccc(-c4ccccc4)cc3)NC(=O)[C@H](Cc3ccc(O)cc3)NC2=O)c1` [Compound 2713] ({CH2CO}-[Dap]Y(Carboxymethyl)D[Phe(3-Me)]Y[Bip]Y[Orn][dL][Dab][Cha]VQC[Dab][Aun]-OH; thioether N-14), for which the IC50 worked out at 7.7 nM.

For `CCCC[C@@H]1NC(=O)[C@H](C(C)C)NC(=O)[C@H](CC2CCCCC2)NC(=O)[C@H](CCN)NC(=O)[C@@H](CC(C)C)NC(=O)[C@H](CCCN)NC(=O)[C@H](Cc2ccc(O)cc2)NC(=O)[C@H](Cc2ccc(-c3ccccc3)cc2)NC(=O)[C@H](Cc2ccc(O)cc2)NC(=O)[C@H](Cc2cccc(C)c2)NC(=O)[C@H](CC(=O)O)NC(=O)[C@H](Cc2ccc(OCC(=O)O)cc2)NC(=O)[C@H](CN)NC(=O)CSC[C@@H](C(=O)N[C@@H](CCN)C(=O)NCCCCCCCCCCC(=O)O)NC1=O` [Compound 2714] ({CH2CO}-[Dap]Y(Carboxymethyl)D[Phe(3-Me)]Y[Bip]Y[Orn][dL][Dab][Cha]V[Nle]C[Dab][Aun]-OH; thioether N-14), the IC50 turned out to be 406 nM.

These data come from patent publication US20260022142A1, “MACROCYCLIC IMMUNOMODULATORS” (Bristol-Myers Squibb Company, priority 2022, published 2026).
